Data reported in PubChem BioAssay AID330 (DTP/NCI, 2004).
Where “and” joins values, the source holds several entries; their conditions need not be identical. Identical values can stand only once. Toxic doses and inconclusive results are not listed. How the source made its calls: active means survival T/C of 150% or more; inactive means T/C below 125% in these data.

Test system: P388 leukemia ip, CD2F1 mice, survival T/C
Assay: NCI In Vivo Anticancer Drug Screen. Data for tumor model P388 Leukemia (intraperitoneal) in CD2F1 (CDF1) mice
Settings: endpoint: median survival time, higher = longer survival
In short: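 Mice carrying the transplanted tumor received test compound or vehicle. Survival was recorded in each group, and the value is the treated-group measurement divided by that of the vehicle-treated control group.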

[1] = dose: 100.0 mg/kg/injection, schedule: Q01DX001 (ip), vehicle: Klucel (hydroxypropylcellulose) (HPC)
[2] = dose: 200.0 mg/kg/injection, schedule: Q01DX001 (ip), vehicle: Klucel (hydroxypropylcellulose) (HPC)
[3] = dose: 400.0 mg/kg/injection, schedule: Q01DX001 (ip), vehicle: Klucel (hydroxypropylcellulose) (HPC)
[4] = dose: 50.0 mg/kg/injection, schedule: Q01DX009 (ip), vehicle: Klucel (hydroxypropylcellulose) (HPC)
[5] = dose: 100.0 mg/kg/injection, schedule: Q01DX009 (ip), vehicle: Klucel (hydroxypropylcellulose) (HPC)
[6] = dose: 200.0 mg/kg/injection, schedule: Q01DX009 (ip), vehicle: Klucel (hydroxypropylcellulose) (HPC)
[7] = dose: 60.0 mg/kg/injection, schedule: Q01DX005 (ip), vehicle: saline
[8] = dose: 120.0 mg/kg/injection, schedule: Q01DX005 (ip), vehicle: saline
[9] = dose: 240.0 mg/kg/injection, schedule: Q01DX005 (ip), vehicle: saline
[10] = dose: 50.0 mg/kg/injection, schedule: Q01DX005 (ip), vehicle: saline with Tween-80
[11] = dose: 100.0 mg/kg/injection, schedule: Q01DX005 (ip), vehicle: saline with Tween-80
[12] = dose: 200.0 mg/kg/injection, schedule: Q01DX005 (ip), vehicle: saline with Tween-80

Measured: T/C

CC(C)(C)C1NC(C(C)(C)C)N2C(C(C)(C)C)N12 (stereo not drawn)
inactive: [1] 100 % of control | [2] 90 % of control | [3] 102 % of control

CN(C)CC(O)c1ccc2ccc3ccccc3c2c1 (stereo not drawn)
inactive: [1] 102 % of control | [2] 101 % of control | [3] 101 % of control

O=C1/C(=C\c2ccccc2)C2OCC=C3CN4CCC56c7ccccc7N1C5C2C3CC46 (stereo not drawn)
inactive: dose: 7.5 mg/kg/injection, schedule: Q01DX005 (ip), vehicle: saline with Tween-80 106 % of control | dose: 15.0 mg/kg/injection, schedule: Q01DX005 (ip), vehicle: saline with Tween-80 108 % of control | dose: 30.0 mg/kg/injection, schedule: Q01DX005 (ip), vehicle: saline with Tween-80 99 % of control

Cc1noc2c1CC(=O)c1ccccc1OC2
inactive: dose: 60.0 mg/kg/injection, schedule: Q01DX005 (ip), vehicle: saline with Tween-80 100 % of control | dose: 120.0 mg/kg/injection, schedule: Q01DX005 (ip), vehicle: saline with Tween-80 98 % of control | dose: 240.0 mg/kg/injection, schedule: Q01DX005 (ip), vehicle: saline with Tween-80 94 % of control

CN(C)C1(c2ccccc2)N=NN=S1C (stereo not drawn)
inactive: dose: 100.0 mg/kg/injection, schedule: Q04DX003 (ip), vehicle: saline with Tween-80 105 % of control | dose: 200.0 mg/kg/injection, schedule: Q04DX003 (ip), vehicle: saline with Tween-80 105 % of control

CC(=O)Oc1cc(C)cc2ccc(-c3ccc4cc(C)cc(OC(C)=O)c4c3OC(C)=O)c(OC(C)=O)c12
inactive: [4] 96 % of control | [5] 96 % of control | [6] 96 % of control

O=c1c2ccccc2oc2cccc(NCCCN3CCN(CCCNc4cccc5oc6ccccc6c(=O)c45)CC3)c12
inactive: dose: 7.0 mg/kg/injection, schedule: Q01DX005 (ip), vehicle: saline with Tween-80 90 % of control

NC(N)=N/N=C/C(O)C(O)C(O)C(O)CO (stereo not drawn)
inactive: [7] 100 % of control | [8] 100 % of control | [9] 106 % of control

COCC1(C)CCCC2(C)C3=C(CCC(=O)C3)CCC12 (stereo not drawn)
inactive: dose: 100.0 mg/kg/injection, schedule: Q04DX003 (ip), vehicle: Klucel (hydroxypropylcellulose) (HPC) 99 % of control | dose: 200.0 mg/kg/injection, schedule: Q04DX003 (ip), vehicle: Klucel (hydroxypropylcellulose) (HPC) 101 % of control | dose: 400.0 mg/kg/injection, schedule: Q04DX003 (ip), vehicle: Klucel (hydroxypropylcellulose) (HPC) 96 % of control

CC(CO)CCC(O)C(C)(O)C1CCC2(O)C3=CC(=O)C4CC(O)C(O)CC4(C)C3CCC12C (stereo not drawn)
inactive: dose: 1.25 mg/kg/injection, schedule: Q01DX005 (ip), vehicle: Klucel (hydroxypropylcellulose) (HPC) 102 % of control | dose: 2.5 mg/kg/injection, schedule: Q01DX005 (ip), vehicle: Klucel (hydroxypropylcellulose) (HPC) 97 % of control | dose: 5.0 mg/kg/injection, schedule: Q01DX005 (ip), vehicle: Klucel (hydroxypropylcellulose) (HPC) 98 % of control | dose: 10.0 mg/kg/injection, schedule: Q01DX005 (ip), vehicle: Klucel (hydroxypropylcellulose) (HPC) 100 % of control | dose: 20.0 mg/kg/injection, schedule: Q01DX005 (ip), vehicle: Klucel (hydroxypropylcellulose) (HPC) 100 % of control | dose: 40.0 mg/kg/injection, schedule: Q01DX005 (ip), vehicle: Klucel (hydroxypropylcellulose) (HPC) 100 % of control | dose: 80.0 mg/kg/injection, schedule: Q01DX005 (ip), vehicle: Klucel (hydroxypropylcellulose) (HPC) 98 % of control

CC(=O)OC1CCC2C3CCC4=C/C(=N/NC(=S)Nc5ccccc5)CCC4(C)C3CCC12C (stereo not drawn)
inactive: dose: 100.0 mg/kg/injection, schedule: Q01DX001 (ip), vehicle: saline 101 % of control | dose: 200.0 mg/kg/injection, schedule: Q01DX001 (ip), vehicle: saline 101 % of control | dose: 400.0 mg/kg/injection, schedule: Q01DX001 (ip), vehicle: saline 100 % of control

O=c1[nH]c2ccccc2c(=O)n1CCCCCCN1CCN(c2cccc(Cl)c2)CC1
inactive: [4] 96 % of control | [5] 105 % of control | [6] 100 % of control

NC1=NS(=O)(=O)Nc2nn(-c3ccccc3)nc21
inactive: dose: 100.0 mg/kg/injection, schedule: Q01DX001 (ip), vehicle: saline with Tween-80 107 % of control | dose: 200.0 mg/kg/injection, schedule: Q01DX001 (ip), vehicle: saline with Tween-80 101 % of control | dose: 400.0 mg/kg/injection, schedule: Q01DX001 (ip), vehicle: saline with Tween-80 99 % of control

COc1cc2c(cc1OC)C1CC(=O)C(CC(C)C)CN1CC2 (stereo not drawn)
inactive: dose: 12.5 mg/kg/injection, schedule: Q01DX009 (ip), vehicle: Klucel (hydroxypropylcellulose) (HPC) 100 % of control | dose: 25.0 mg/kg/injection, schedule: Q01DX009 (ip), vehicle: Klucel (hydroxypropylcellulose) (HPC) 100 % of control | [4] 103 % of control

Cc1cc(C(=O)O)c(C)c(S(=O)(=O)O)c1
inactive: dose: 12.5 mg/kg/injection, schedule: Q01DX009 (ip), vehicle: water 102 % of control | dose: 25.0 mg/kg/injection, schedule: Q01DX009 (ip), vehicle: water 97 % of control | dose: 50.0 mg/kg/injection, schedule: Q01DX009 (ip), vehicle: water 92 % of control | dose: 100.0 mg/kg/injection, schedule: Q01DX009 (ip), vehicle: water 102 % of control | dose: 200.0 mg/kg/injection, schedule: Q01DX009 (ip), vehicle: water 99 % of control

COc1ccc2nc(NC(=O)Nc3ccc(Cc4ccc(NC(=O)Nc5nc6ccc(OC)cc6s5)cc4)cc3)sc2c1
inactive: [4] 100 % of control | [5] 94 % of control | [6] 99 % of control

C(=N\Nc1nnc2c3ccccc3c3ccccc3c2n1)/c1ccc2c(c1)OCO2
inactive: dose: 50.0 mg/kg/injection, schedule: Q04DX002 (ip), vehicle: suspension in saline 91 % of control | dose: 100.0 mg/kg/injection, schedule: Q04DX002 (ip), vehicle: suspension in saline 88 % of control | dose: 200.0 mg/kg/injection, schedule: Q04DX002 (ip), vehicle: suspension in saline 91 % of control

COCCCn1nnc2ccccc2c1=O
inactive: dose: 25.0 mg/kg/injection, schedule: Q01DX009 (ip), vehicle: other 105 % of control | dose: 50.0 mg/kg/injection, schedule: Q01DX009 (ip), vehicle: other 100 % of control | dose: 100.0 mg/kg/injection, schedule: Q01DX009 (ip), vehicle: other 104 % of control | dose: 200.0 mg/kg/injection, schedule: Q01DX009 (ip), vehicle: other 106 % of control

CCOC(=O)C(=CNc1cccc(N(C)C)c1)C(=O)OCC
inactive: [10] 100 % of control | [11] 92 % of control | [12] 100 % of control

NNc1cnc2ccccc2n1
inactive: dose: 1.88 mg/kg/injection, schedule: Q01DX009 (ip), vehicle: suspension in saline 93 % of control | dose: 18.8 mg/kg/injection, schedule: Q04DX003 (ip), vehicle: saline 101 % of control and 106 % of control | dose: 37.5 mg/kg/injection, schedule: Q01DX009 (ip), vehicle: suspension in saline 95 % of control | dose: 37.5 mg/kg/injection, schedule: Q04DX003 (ip), vehicle: saline 100 % of control and 103 % of control | dose: 75.0 mg/kg/injection, schedule: Q01DX009 (ip), vehicle: suspension in saline 90 % of control | dose: 75.0 mg/kg/injection, schedule: Q04DX003 (ip), vehicle: saline 100 % of control and 107 % of control

CC(=O)OC1CC(OC(C)=O)C2(C)CC3=C(O)C(=O)OC3CC(C)C12 (stereo not drawn)
inactive: dose: 100.0 mg/kg/injection, schedule: Q04DX002 (ip), vehicle: saline with Tween-80 97 % of control | dose: 200.0 mg/kg/injection, schedule: Q04DX002 (ip), vehicle: saline with Tween-80 101 % of control

CCC1SCC(=O)N1c1nncs1 (stereo not drawn)
inactive: dose: 25.0 mg/kg/injection, schedule: Q01DX005 (ip), vehicle: saline with Tween-80 104 % of control | [10] 101 % of control and 102 % of control | [11] 102 % of control and 97 % of control | [12] 101 % of control

CN(C)CCC(=O)C(=Cc1ccccc1Cl)C(=O)CCN(C)C
inactive: [7] 105 % of control | [8] 106 % of control | [9] 105 % of control

CC(=O)OC1CCC2C3CCC4CC(=O)CCC4(C)C3CCC12C (stereo not drawn)
inactive: dose: 25.0 mg/kg/injection, schedule: Q01DX009 (ip), vehicle: saline with Tween-80 91 % of control | dose: 50.0 mg/kg/injection, schedule: Q01DX009 (ip), vehicle: saline with Tween-80 97 % of control | dose: 100.0 mg/kg/injection, schedule: Q01DX009 (ip), vehicle: saline with Tween-80 97 % of control | dose: 200.0 mg/kg/injection, schedule: Q01DX009 (ip), vehicle: saline with Tween-80 100 % of control

C=CCNC(=S)Nc1ccc(NC(C)=O)c(OC)c1
inactive: [4] 102 % of control | [5] 102 % of control | [6] 86 % of control
